Reference: patent publication EP0124891A2, “Antimutagenic agent and method of inactivating the mutagenicity of foods and beverages by using said agent” (SUNTORY LIMITED, priority 1983, dated 1984)

Columns and labels:
human cells = details: cited from earlier work
Neuros^pera crassa = details: cited from earlier work
[1] = test system: Salmonella typhimurium TA 100; assay: Mutagenicity and antimutagenic effect, Salmonella test (Ames), preincubation method, revertant colony count; details: Salmonella typhimurium TA 100 (histidine-requiring), 48 h, pH 7.4
Description: Histidine-requiring Salmonella typhimurium TA 100 (hereunder S. TA 100) was used.
Instant coffee powder was dissolved in distilled water. Predetermined amounts of wheat germ preparations were also dissolved in distilled water, and 50 µl of each solution was mixed with an equal amount of the aqueous coffee solution.
Roasted coffee beans (20 g) were extracted with hot distilled water (250 ml), and the extract was filtered through coffee filter paper No. 12 manufactured by Kalita Co., Ltd. The extract was freeze-dried, and after measuring the weight of the dry product, it was dissolved in distilled water. Predetermined amounts of wheat germ preparations were also dissolved in distilled water, and 50 µl of each solution was mixed with an equal amount of the aqueous solution of coffee concentrate. […]
To 100 µl of each of the samples prepared in (iii)(a) to (f), 500 µl of 0.1 M sodium phosphate buffer (pH 7.4) plus 100 µl of a culture of S. TA 100 strain were added. […] After incubation at 37°C for 48 hours, the number of colonies forming on the plate was counted as revertants. The percent inhibition of mutagenicity can be calculated by the following formula, if necessary: [formula]
A powder of extracted coffee beans (15 mg) as prepared by the method shown in I)(iii)(b) was dissolved in distilled water to make 50 µl. […] The mutagenicity of each mixture was determined by the method shown in I)(i).

mouse deodenum = details: 0.1 % of hydrogen peroxide; cited from earlier work

OO [Hydrogen peroxide, hydrogen peroxide]
clastogenicity to human cells (human cells): clastogenic
mutagenicity to Neurospora crassa (Neuros^pera crassa): mutagenic
mutagenicity to S. TA 100 [1]: 160 revertants/10^8 survivors/Pmole
carcinogenicity (mouse deodenum): proved to cause malignant tumors
